# Like-named read-outs stand apart in the source and are kept apart here.
# Assays:
# [1] = biological target: T1, hCB1 (Homo sapiens, UniProt P21554); assay: hCB1 radioligand binding assay ([3H]-CP 55,940 displacement); conditions: hCB1 IC50 (CP displ, nM, HEK), HEK membranes
# Description: (§1) cDNA expression clones for human CB 1 (hCB1, Genbank Accession No. AY225225) and human CB2 (hCB2, Genbank Accession No. AY242132) expressed in vector pcDNA3.1+ were purchased from UMR cDNA Resource Center, Rolla, Mo. (Clone ID CNR01L000 for hCB1; CNR0200000 for hCB2).
# Stable, HEK-293-derived cell lines that recombinantly express hCB1 or hCB2 were established. In brief, the clone hCB1 (CNR1L) or hCB2 (CNR2) was transfected into human embryonic kidney cells (HEK-293) using Lipofectamine 2000 (Gibco, Cat#11668-019) according to the manufacturer's protocol. Transfected clones were isolated by single colony purification and clones were screened for receptor expression using a whole cell, ^3H—CP 55,940 radioligand binding assay. HEK-293 stable cells were maintained in Dulbecco's modified Eagles medium (DMEM) containing 10% fetal bovine serum, 2 mM L-glutamine and 0.5 mg/mL G-418.
# (§2) Membranes were isolated from transfected cells as follows. Monolayers of cultured cells were washed twice with phosphate-buffered saline (PBS). Cells were scraped into 20 mM HEPES, pH 7.4, 10 mM EDTA containing complete cocktail protease inhibitors (Roche, Catalog #11 697 498 001), and were homogenized by an electric-powered mechanical probe homogenizer (Omni GLH; probe G7-195S) for 40 seconds at 7000 rpm. Homogenates were centrifuged 10 minutes at 1000×g at 4° C. The supernatant was collected and was centrifuged for 1 hour at 40,000×g. The supernatant was then decanted and the resulting pellet was re-suspended in 20 mM HEPES, pH 7.4, 5 mM MgCl2, 1 mM EDTA, 10% sucrose with complete cocktail protease inhibitors. Protein concentration of membrane suspensions were measured by Bradford Protein Assay using bovine serum albumin as the standard (BioRad catalog #500-0006). Protein concentrations of membrane suspensions were adjusted with the final buffer in the range of 5 to 10 mg/mL and were stored at −80° C. until further use.
# Radioligand binding assays were performed by incubating membranes (2-10 μg protein) prepared from HEK-293 cells expressing recombinant human cannabinoid receptors, CB 1 or CB2, at room temperature with 0.5 nM cannabinoid receptor agonist, [^3H]-CP 55,940 (Perkin Elmer, catalog #NET 1051) in 0.2 mL of binding buffer (50 mM Tris-HCl, pH 7.5, 5 mM MgCl2, 2.5 mM EDTA) and 0.1% fatty acid free bovine serum albumin (Sigma Cat. #A0821) for 90 minutes. A rapid filtration technique using Millipore FB filter plates (Catalog #MADVNOB) and filtration apparatus (Millipore system Catalog MAVM0960R) with vacuum aspiration was used to harvest and rinse labeled membranes (8 times with 0.2 mL of chilled binding buffer). The radioactivity bound to the filters was counted with 0.05 mL of liquid scintillant (UltraGold MV, PerkinElmer catalog #6013159) in a scintillation counter (Perkin Elmer Microbeta instrument). Nonspecific binding was determined in the presence of unlabeled 1 μM CP 55,940 (Sigma Aldrich, catalog #C1112). Binding data were analyzed using GraphPad Prism (GraphPad Software, Inc. San Diego, Calif.).
# [2] = biological target: T1, hCB1; assay: hCB1 cAMP agonist assay (HEK-293 cells); assay type: cell-based
# [3] = biological target: T2, hCB2 (Homo sapiens, UniProt P34972); assay: hCB2 cAMP agonist assay (HEK-293 cells); assay type: cell-based
# Method: as §1
# cAMP assays were performed in HEK-293 cells stably expressing human CB 1 or CB2 receptors. […] Cells suspensions were centrifuged and the cells were washed once with PBS, were centrifuged again, and the cells were resuspended in HBSS (Hank's Balanced Salt Solution, Cellgro, Cat #21-022-CV) solution containing 10 mM HEPES and 0.1% fatty acid free BSA (Sigma, Cat #A0281). Cell suspensions were prepared at 1,500,000 cells per mL. Stock solutions of test substances (10 mM) in DMSO were diluted to 1 mM using 30% DMSO as diluent. Test substances of solutions (1 mM) were further diluted down to 3× of final assay concentrations in the above HBSS buffer containing 0.1% BSA in the presence of 90 uM forskolin (Sigma Cat#F6886). To perform the assay, 20 μL of cell suspension (1,500,000 cells/mL) were added to each well in 96 well plate and treated with 10 μL test substance solution diluted as described above. Cells and compounds were incubated at 37° C. for 30 minutes. Cells were lysed and cAMP concentration was measured using DiscoveRx-XS+ cAMP assay kit (DiscoveRx Corporation Ltd., Fremont, Calif., USA, Cat #90-0075-03), following the manufacturer's protocol. GraphPad Prism software was used to calculate EC50 values using sigmoidal dose response curve fitting. The maximal amount of cAMP produced by forskolin was defined as 100%.
# [4] = biological target: T2, hCB2; assay: hCB2 radioligand binding assay ([3H]-CP 55,940 displacement); conditions: hCB2 IC50 (CP displ, nM, HEK), HEK membranes
# Method: as §1
# as §2, with “Cells were scraped into 20 mM HEPES, pH 7.4, 10 mM EDTA containing complete cocktail protease inhibitors (Roche, Catalog #11 697 498 001), and were homogenized by an electric-powered mechanical probe homogenizer (Omni GLH; probe G7-195S) for 40 seconds at 7000 rpm.” left out
# A rapid filtration technique using Millipore FB filter plates (Catalog #MADVNOB) and filtration apparatus (Millipore system Catalog MAVM0960R) with vacuum aspiration was used to harvest and rinse labeled membranes (8 times with 0.2 mL of chilled binding buffer). […] Binding data were analyzed using GraphPad Prism (GraphPad Software, Inc. San Diego, Calif.).
# [5] = biological target: T2, hCB2; assay: hCB2 GTPγS agonist assay (HEK-293 membranes); assay type: biochemical
# Method: as §1
# as §2, with “Cells were scraped into 20 mM HEPES, pH 7.4, 10 mM EDTA containing complete cocktail protease inhibitors (Roche, Catalog #11 697 498 001), and were homogenized by an electric-powered mechanical probe homogenizer (Omni GLH; probe G7-195S) for 40 seconds at 7000 rpm.” left out
# ^35S GTPγS binding assays were performed by incubating recombinant cell membranes prepared above (5 μg) in the presence of scintillation proximity assay beads (SPA beads, Catalog #RPNQ0252 GE Healthcare, Buckinghamshire, England) in GTPγS binding buffer [50 mM HEPES (pH 7.4), 100 mM NaCl, 5 mM MgCl2, 0.001% saponin (Sigma catalog #S4521)] supplemented with 20 uM GDP (Sigma catalog #G7127) in the presence or absence of test compound. The reaction was carried out in 96-well microplates with 0.1 nM [^35S]GTPγS (specific activity=1250 Ci/mmol; Perkin Elmer catalog #NEG030X250UC) in a final volume of 100 μL. After a 90 min room temperature incubation, the reaction was analyzed using a scintillation counter (Perkin Elmer Microbeta instrument). Binding data were analyzed using GraphPad Prism.
# [6] = cAMP agonist, HEK, 96-well, read-out: hCB2 EC50 (cAMP ag, nM, HEK (96-well))
# [7] = GTPγS agonist, HEK membranes, read-out: hCB2 EC50 (GTPyS ag, nM, HEK)
# [8] = cAMP agonist, HEK, 96-well, read-out: hCB1 EC50 (cAMP ag, nM, HEK (96-well))
# T1 sequence (P21554 whole entry): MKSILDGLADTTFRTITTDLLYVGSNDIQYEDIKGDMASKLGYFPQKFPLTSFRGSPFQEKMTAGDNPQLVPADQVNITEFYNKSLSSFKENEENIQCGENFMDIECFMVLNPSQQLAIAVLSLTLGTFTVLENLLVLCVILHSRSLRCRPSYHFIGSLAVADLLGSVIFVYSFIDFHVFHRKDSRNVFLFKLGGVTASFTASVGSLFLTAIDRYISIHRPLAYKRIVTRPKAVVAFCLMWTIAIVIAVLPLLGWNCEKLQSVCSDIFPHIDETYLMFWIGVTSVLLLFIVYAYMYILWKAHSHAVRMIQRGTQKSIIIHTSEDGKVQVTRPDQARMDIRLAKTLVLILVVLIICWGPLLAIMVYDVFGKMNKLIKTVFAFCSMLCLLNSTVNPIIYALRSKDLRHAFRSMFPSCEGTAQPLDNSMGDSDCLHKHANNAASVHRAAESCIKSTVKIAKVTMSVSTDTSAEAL
# T2 sequence (P34972 whole entry): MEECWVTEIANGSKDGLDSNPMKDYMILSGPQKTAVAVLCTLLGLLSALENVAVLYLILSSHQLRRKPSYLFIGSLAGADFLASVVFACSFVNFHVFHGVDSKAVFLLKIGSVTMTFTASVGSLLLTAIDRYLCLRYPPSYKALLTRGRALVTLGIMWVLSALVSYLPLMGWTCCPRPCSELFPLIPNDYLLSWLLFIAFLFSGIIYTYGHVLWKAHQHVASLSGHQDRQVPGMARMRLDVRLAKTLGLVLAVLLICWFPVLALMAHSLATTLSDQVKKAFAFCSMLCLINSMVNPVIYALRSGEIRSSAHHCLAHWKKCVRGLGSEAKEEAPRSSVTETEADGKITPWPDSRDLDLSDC
SMILES,IC50 [1] [nM],"hCB1 EC50 (cAMP ag, nM, HEK (96-well)) ([2]; cAMP agonist, HEK, 96-well)",EC50 [3] [nM],IC50 [4] [nM],EC50 [5] [nM],EC50 [2] [nM],"EC50 [3, 6] [nM]","EC50 [5, 7] [nM]","EC50 [2, 8] [nM]"
CCCn1c(C(=O)c2c(C)n(CCC)c3sccc23)cc2ccccc21 [Compound I-14],100 to 1000,"NS (“Not Significant,” which means less than 30% agonist activity when compared to the positive control)",100 to 1000,100 to 1000,100 to 1000,–,–,–,–
CCn1c(C(=O)c2c(C)n(CC3CCOCC3)c3ccccc23)cc2ccsc21 [Compound I-17],100 to 1000,–,< 100,< 100,< 100,100 to 1000,–,–,–
CCn1c(C(=O)c2c(C)n(CCCNS(C)(=O)=O)c3ccccc23)cc2ccsc21 [Compound I-19],1000 to 10000,"NS (“Not Significant,” which means less than 30% agonist activity when compared to the positive control)",–,< 100,–,–,< 100,< 100,–
C=CCn1cc(C(=O)c2cc3ccsc3n2CC)c2cnccc21 [Compound I-21],> 10000,–,1000 to 10000,100 to 1000,100 to 1000,100 to 1000,–,–,–
CCCn1cc(C(=O)c2cc3ccsc3n2CC)c2cnccc21 [Compound I-22],1000 to 10000,"NS (“Not Significant,” which means less than 30% agonist activity when compared to the positive control)",< 100,100 to 1000,100 to 1000,–,–,–,–
CCCn1cc(C(=O)c2cc3ccsc3n2CC)c2ccncc21 [Compound I-23],1000 to 10000,"NS (“Not Significant,” which means less than 30% agonist activity when compared to the positive control)",< 100,< 100,100 to 1000,–,–,–,–
CCn1c(C(=O)c2c(C)n(CCN3CCOC3=O)c3ccccc23)cc2ccsc21 [Compound I-25],> 10000,–,–,< 100,–,–,< 100,< 100,1000 to 10000
CCCn1c(C)c(C(=O)c2cc3scnc3n2CC)c2ccccc21 [Compound I-31],1000 to 10000,"NS (“Not Significant,” which means less than 30% agonist activity when compared to the positive control)",< 100,100 to 1000,100 to 1000,–,–,–,–
CCCn1cc(C(=O)c2cc3ccsc3n2C)c2ccccc21 [Compound I-32],100 to 1000,–,< 100,< 100,< 100,100 to 1000,–,–,–
CCCn1c(C)c(C(=O)c2cc3ccsc3n2CC)c2cccc(OC)c21 [Compound I-36],100 to 1000,–,< 100,< 100,< 100,100 to 1000,–,–,–
CCCn1c(C(=O)c2cn(C)c3ccccc23)cc2ccsc21 [Compound I-47],100 to 1000,–,< 100,< 100,100 to 1000,–,–,–,100 to 1000
CCCn1c(C)c(C(=O)c2cc3cc(Cl)sc3n2CCC)c2ccccc21 [Compound I-49],1000 to 10000,"NS (“Not Significant,” which means less than 30% agonist activity when compared to the positive control)",< 100,< 100,< 100,–,–,–,–
CCCn1c(C(=O)c2c(C)[nH]c3ccccc23)cc2ccsc21 [Compound I-51],> 10000,"NS (“Not Significant,” which means less than 30% agonist activity when compared to the positive control)",–,100 to 1000,–,–,100 to 1000,–,–
CCCn1c(C(=O)c2c(C)n(C)c3ccccc23)cc2ccsc21 [Compound I-53],> 10000,"NS (“Not Significant,” which means less than 30% agonist activity when compared to the positive control)",–,100 to 1000,–,–,100 to 1000,100 to 1000,–
CCCn1c(C(=O)c2c(C)n(S(=O)(=O)CC)c3ccccc23)cc2ccsc21 [Compound I-67],> 10000,"NS (“Not Significant,” which means less than 30% agonist activity when compared to the positive control)",–,100 to 1000,–,–,100 to 1000,–,–

# Reference: patent US20130178453A1, “Cannabinoid Agonists” (priority 2010, published 2013)
